Source: patent US3956510A, “Certain mixed antibacterials” (priority 1974, dated 1976)

How the values were obtained:
Pseudomonas aeruginosa [1] = settings: alone; is reported; cited from earlier work
Pseudomonas aeruginosa [2] = assay: bacteriostatic activity / minimum inhibitory concentration against Pseudomonas aeruginosa; format: cell-based
bacteria = settings: cited from earlier work

For `Oc1cc(Cl)ccc1Oc1ccc(Cl)cc1Cl` [2,4,4'-trichloro-2'-hydroxydiphenyl ether], the minimum inhibitory concentration (Pseudomonas aeruginosa [1]) is given as “greater than 300 ppm” and the “activity in the presence of a surfactant” value (Pseudomonas aeruginosa [2]; in the presence of a surfactant such as soap) is given as “no practical activity is demonstrable”.

`O=C(Nc1ccc(Br)cc1)c1cc(Br)cc(Br)c1O` [3,4',5-tribromo salicylanilide] showed a bacteriostatic activity (Pseudomonas aeruginosa [2]; alone, under the most ideal conditions) of 75 ppm and a bacteriostatic activity (Pseudomonas aeruginosa [2]; with 2% soap, based on active ingredient) of 160 ppm.

In the case of benzalkonium chloride, the “bactericidal effect on dried bacteria coated with a greasy film” value (bacteria; dried bacteria coated with a greasy film, Rahm 1946) is listed as “can survive many hours of contact” and the bactericidal effect (bacteria; ordinarily) is listed as “ordinarily kills bacteria”.
